Columns and labels:
[1] = tested on: ADAMTS5, MMP13, Aggrecan Neo, aggrecan in tibial articular cartilage; assay: IF staining of tibial articular cartilage of drug-treated DMM mice; assay type: in vivo, mouse; settings: for aggrecan expression (IF staining, whole tibial articular surface): daily ip week 8 to 12, versus vehicle; for ADAMTS5 expression (IF staining, uncalcified cartilage) / Aggrecan Neo expression (IF staining, uncalcified cartilage) / MMP13 expression (IF staining, uncalcified cartilage): daily treatment week 8 to 12
Method: Drug treatment studies: In twelve-week old male wild type C57BL/6 mice that received DMM surgeries, vehicle (PBS), paroxetine (5 mg/kg/day), fluoxetine (5 mg/kg/day), gallein (10 mg/kg/day) or indomethacin (2.5 mg/kg/day) were administered daily by ip injection. Drug treatment was initiated 8 weeks following DMM to determine the role of GRK2 signaling in the progression of OA. Paraffin sections were deparaffinized in three changes of xylene for five minutes each, rehydrated in ethanol (two changes of 100% ethanol, followed by two changes of 95% ethanol, followed by one change of 70% ethanol) and rinsed twice in deionized water. Antigen retrieval was performed for 30 minutes at 37° C. using 0.4% pepsin (Sigma P-7000) in 0.1M hydrochloric acid (HCl) and was followed by permeabilization for 30 minutes at room temperature using Triton X in tris buffered saline (TBS). Sections were then blocked for 1 hour at room temperature in 10% normal goat serum in 1×TBS. Tissue sections were incubated overnight at 4° C. with the rabbit anti-mouse primary antibody specific for the target protein (detailed in Table 1). Following three 5-minute washes in 1×TBS, slides were incubated for 1 hour at room temperature with biotinylated goat anti-rabbit secondary antibody (Life Technologies, Waltham, MA, USA), washed again with 3 changes of 1×TBS and incubated for 1 hour at room temperature with Alexa fluor 647 Streptavidin. Finally, slides were washed with three changes of 1×TBS for 5 minutes each, followed by one wash with 1×TBS with tween 20 (TBST), and a final 5-minute wash in 1×TBS. Mounting and nuclear staining was performed using ProLong™ Gold antifade reagent with DAPI (Invitrogen, Waltham, MA, USA).

DMM mice [2] = assay: Anterior femoral synovial membrane thickness in DMM mice; assay type: in vivo, mouse; settings: daily ip week 8 to 12, versus vehicle
Method: Drug treatment studies: In twelve-week old male wild type C57BL/6 mice that received DMM surgeries, vehicle (PBS), paroxetine (5 mg/kg/day), fluoxetine (5 mg/kg/day), gallein (10 mg/kg/day) or indomethacin (2.5 mg/kg/day) were administered daily by ip injection. Drug treatment was initiated 8 weeks following DMM to determine the role of GRK2 signaling in the progression of OA. Using Safranin-O/Fast Green-stained sections, the OsteoMetrics system was used to quantify the above parameters on three sections from representative levels (50 μm apart) of the medial compartment of the joint for each sample. Live images of the center of the knee joint were collected through an Olympus microscope (10× objective) outfitted with a camera, a stylus was used to trace the regions of interest (ROIs). A blinded observer quantified uncalcified articular cartilage area, total chondrocyte number and matrix-producing chondrocyte number using the built-in area calculation algorithms and quantification functions of the OsteoMeasure® system. […] The calcified cartilage was determined with a line drawn along the tide mark, which is the naturally occurring line separating the calcified and uncalcified regions of the articular cartilage. A second line was drawn at the chondro-osseous junction where the calcified cartilage meets the subchondral bone. The uncalcified cartilage area was determined by subtracting the calcified cartilage area from the total area of cartilage. Total chondrocyte number and matrix-producing chondrocyte number were counted within the uncalcified cartilage region using count functions within the histomorphometry system. Matrix-producing chondrocytes were counted based on the region of Safranin-O staining within the extracellular matrix surrounding the articular chondrocyte, indicating anabolic signaling to maintain matrix homeostasis. Similarly, the anterior femoral synovial thickness was measured using OsteoMeasure® software. Synovial membrane thickness extending from anterior horn of the medial meniscus to the femur was determined by drawing a line from the inner insertion point on the femur towards the attachment on the meniscus. A second line was drawn from the outer insertion of the femur towards the attachment to the meniscus. The synovial thickness was calculated by dividing total synovial area by synovial perimeter.

PTH1R Gas/cAMP signaling = assay: PTH-stimulated cAMP in articular cartilage explants of sham or DMM mice treated with paroxetine; parameters: species or system mouse; settings: paroxetine ip 5 mg/kg/day for 8 weeks, cartilage stimulated with PTH ex vivo, 30 minutes
Method: Methods: Destabilization of the medial meniscus (DMM) surgery was used to simulate clinical post-traumatic OA. First, we determined the role of GRK2 inhibition in PTH1R Gas-cAMP signaling: 12 week old male mice underwent sham or DMM surgery and were treated with either vehicle or the GRK2 inhibitor “paroxetine” (ip, 5 mg/kg/day), treatment was initiated at the time of surgery and continued daily until 8 weeks. Knees were harvested and articular cartilage was obtained for ex vivo analysis of Gas activity. In ex vivo culture, cartilage explants were treated with PTH as an agonist to stimulate PTH1R-Ga-cAMP signaling. Thirty minutes following PTH stimulation, cartilage tissue was homogenized and cAMP levels were measured. Then, we determined the role of GRK2 inhibition in recovering or even potentiating PTH1R signaling in OA cartilage: 12 week old male mice underwent sham or DMM surgery, and received treatment with vehicle, PTH (sc, 40 μg/kg/day) alone, the GRK2 inhibitor “paroxetine3” (ip, 5 mg/kg/day) alone, or their combination. Treatment was initiated at week 8 following DMM surgery, where OA is in progress, and continued until week 12 where mice were sacrificed. […] Results are expressed as mean values+s.e.m. with an N=5-8 mice per experimental group. […]

DMM mice [3] = assay: DMM mice treated with PTH, paroxetine or their combination: histology and histomorphometry (Example 1); assay type: in vivo, mouse; settings: treatment week 8 to 12, PTH sc 40 μg/kg/day, paroxetine ip 5 mg/kg/day
Method: Methods: Destabilization of the medial meniscus (DMM) surgery was used to simulate clinical post-traumatic OA. First, we determined the role of GRK2 inhibition in PTH1R Gas-cAMP signaling: 12 week old male mice underwent sham or DMM surgery and were treated with either vehicle or the GRK2 inhibitor “paroxetine” (ip, 5 mg/kg/day), treatment was initiated at the time of surgery and continued daily until 8 weeks. Knees were harvested and articular cartilage was obtained for ex vivo analysis of Gas activity. In ex vivo culture, cartilage explants were treated with PTH as an agonist to stimulate PTH1R-Ga-cAMP signaling. Thirty minutes following PTH stimulation, cartilage tissue was homogenized and cAMP levels were measured. Then, we determined the role of GRK2 inhibition in recovering or even potentiating PTH1R signaling in OA cartilage: 12 week old male mice underwent sham or DMM surgery, and received treatment with vehicle, PTH (sc, 40 μg/kg/day) alone, the GRK2 inhibitor “paroxetine3” (ip, 5 mg/kg/day) alone, or their combination. Treatment was initiated at week 8 following DMM surgery, where OA is in progress, and continued until week 12 where mice were sacrificed. Knees were harvested, paraffin embedded, sectioned and stained with safranin-o and fast green for histological evaluation, OARSI scoring, and histomorphometric analysis. Results are expressed as mean values+s.e.m. with an N=5-8 mice per experimental group. Statistical analyses were performed using one ANVOA with P<0.05 representing statistical significance.

DMM mice [4] = assay: Gait (stride length) in DMM mice; assay type: in vivo, mouse; settings: daily treatment week 8 to 12, measured 12 weeks following DMM
Text: Paroxetine normalizes changes in the gait of DMM mice. Stride length in centimeters measured for sham mice and DMM mice 12 weeks following DMM. DMM mice received respective daily treatments from week 8 until week 12 following DMM: vehicle (V) or Paroxetine (Px). **P<0.01 & ***P<0.001

DMM mice [5] = assay: Response threshold to mechanical pain stimulus in DMM mice; assay type: in vivo, mouse; settings: daily treatment week 8 to 12, measured 12 weeks following DMM
Text: Paroxetine attenuates pain sensitivity of DMM mice. Response threshold to mechanical pain stimulus measured in sham mice and DMM mice 12 weeks following DMM. DMM mice received respective daily treatments from week 8 until week 12 following DMM: vehicle (V) or Paroxetine (Px). *P<0.05 & ***P<0.001.

| Compound | aggrecan expression (IF staining, whole tibial articular surface) [1] | ADAMTS5 expression (IF staining, uncalcified cartilage) [1] | Aggrecan Neo expression (IF staining, uncalcified cartilage) [1] | MMP13 expression (IF staining, uncalcified cartilage) [1] | synovial membrane thickness (DMM mice [2]) | PTH/PTH1R-mediated cAMP production (PTH1R Gas/cAMP signaling; DMM mice) | PTH/PTH1R-mediated cAMP production (PTH1R Gas/cAMP signaling; sham mice) | chondrocyte number (DMM mice [3]) | number of matrix-producing (anabolic) chondrocytes (DMM mice [3]) | uncalcified cartilage area (DMM mice [3]) | changes in the gait (stride length) (DMM mice [4]) | pain sensitivity (response threshold to mechanical pain stimulus) (DMM mice [5]) |
| --- | --- | --- | --- | --- | --- | --- | --- | --- | --- | --- | --- | --- |
| O=C1OC2(c3ccccc31)c1ccc(O)c(O)c1Oc1c2ccc(O)c1O [gallein] | enhanced | significantly decreased | significantly decreased | significantly decreased | as effective as indomethacin |  |  |  |  |  |  |  |
| Fc1ccc([C@@H]2CCNC[C@H]2COc2ccc3c(c2)OCO3)cc1 [paroxetine] | enhanced | significantly decreased | significantly decreased | significantly decreased | as effective as indomethacin | recovered | potentiated | increased | particular increase | increased | normalizes | attenuates |
